Our source for the mutagenic call values is PubChem BioAssay AID1259407 (Chemical Carcinogenesis Research Information System (CCRIS), 2018).

Calls of active or inactive are those of the source. No rule for the calls is given here.

The data set deals with CCRIS mutagenicity, Ames/micronucleus/aberration tests. The data set can be described thus: CCRIS mutagenicity studies.
The mark [1] stands for this setting: Test System: AMES SALMONELLA TYPHIMURIUM, Strain/Indicator: TA98, Metabolic Activation: NONE, Method: STANDARD PLATE.
[2] abbreviates: Test System: AMES SALMONELLA TYPHIMURIUM, Strain/Indicator: TA100, Metabolic Activation: NONE, Method: STANDARD PLATE.
[3] abbreviates: Test System: AMES SALMONELLA TYPHIMURIUM, Strain/Indicator: TA1535, Metabolic Activation: NONE, Method: STANDARD PLATE.
The mark [4] stands for this setting: Test System: AMES SALMONELLA TYPHIMURIUM, Strain/Indicator: TA1537, Metabolic Activation: NONE, Method: STANDARD PLATE.

Take `CC(=O)CN(C)N=O`: the mutagenic call is, setting by setting: (Test System: AMES SALMONELLA TYPHIMURIUM, Strain/Indicator: TA100, Metabolic Activation: HAMSTER, LIVER, S-9, 3-METHYLCHOLANTHRENE, Method: PREINCUBATION) “active; positive”; (Test System: AMES SALMONELLA TYPHIMURIUM, Strain/Indicator: TA100, Metabolic Activation: HAMSTER, LIVER, S-9, PHENOBARBITAL, Method: PREINCUBATION) “active; positive”; (Test System: AMES SALMONELLA TYPHIMURIUM, Strain/Indicator: TA100, Metabolic Activation: HUMAN, LIVER, S-9, Method: PREINCUBATION) “inactive; negative”; (Test System: AMES SALMONELLA TYPHIMURIUM, Strain/Indicator: TA100, Metabolic Activation: MONKEY, LIVER, S-9, Method: PREINCUBATION) “active; positive”; (Test System: AMES SALMONELLA TYPHIMURIUM, Strain/Indicator: TA100, Metabolic Activation: MOUSE, LIVER, S-9, 3-METHYLCHOLANTHRENE, Method: PREINCUBATION) “active; positive”; (Test System: AMES SALMONELLA TYPHIMURIUM, Strain/Indicator: TA100, Metabolic Activation: MOUSE, LIVER, S-9, PHENOBARBITAL, Method: PREINCUBATION) “active; positive”. Further, the mutagenic call reads like this: (Test System: AMES SALMONELLA TYPHIMURIUM, Strain/Indicator: TA100, Metabolic Activation: MOUSE, LIVER, S-9, Method: PREINCUBATION) “active; positive”; (Test System: AMES SALMONELLA TYPHIMURIUM, Strain/Indicator: TA100, Metabolic Activation: NONE, Method: PREINCUBATION) “inactive; negative”; (Test System: AMES SALMONELLA TYPHIMURIUM, Strain/Indicator: TA100, Metabolic Activation: RABBIT, LIVER, S-9, Method: PREINCUBATION) “active; positive”; (Test System: AMES SALMONELLA TYPHIMURIUM, Strain/Indicator: TA100, Metabolic Activation: RAT, LIVER, CYTOSOL, PCB, Method: PREINCUBATION) “inactive; negative”; (Test System: AMES SALMONELLA TYPHIMURIUM, Strain/Indicator: TA100, Metabolic Activation: RAT, LIVER, MICROSOMES AND CYTOSOL, PCB, Method: PREINCUBATION) “active; positive”; (Test System: AMES SALMONELLA TYPHIMURIUM, Strain/Indicator: TA100, Metabolic Activation: RAT, LIVER, MICROSOMES AND G6PDH, PCB, Method: PREINCUBATION) “active; positive”. In addition, the mutagenic call (Test System: AMES SALMONELLA TYPHIMURIUM, Strain/Indicator: TA100, Metabolic Activation: RAT, LIVER, MICROSOMES, PCB, Method: PREINCUBATION) is “active; positive”; the mutagenic call (Test System: AMES SALMONELLA TYPHIMURIUM, Strain/Indicator: TA100, Metabolic Activation: RAT, LIVER, S-9 (HEATED), PCB, Method: PREINCUBATION) was “inactive; negative”; the mutagenic call (Test System: AMES SALMONELLA TYPHIMURIUM, Strain/Indicator: TA100, Metabolic Activation: RAT, LIVER, S-9, 3-METHYLCHOLANTHRENE, Method: PREINCUBATION) is “inactive; negative”; the mutagenic call (Test System: AMES SALMONELLA TYPHIMURIUM, Strain/Indicator: TA100, Metabolic Activation: RAT, LIVER, S-9, PCB, Method: PREINCUBATION) was “active; positive”; the mutagenic call (Test System: AMES SALMONELLA TYPHIMURIUM, Strain/Indicator: TA100, Metabolic Activation: RAT, LIVER, S-9, PHENOBARBITAL, Method: PREINCUBATION) is “active; positive”; the mutagenic call (Test System: AMES SALMONELLA TYPHIMURIUM, Strain/Indicator: TA100, Metabolic Activation: RAT, LIVER, S-9 WITHOUT NADP+, PCB, Method: PREINCUBATION) is “inactive; negative”. For the same compound, the mutagenic call by setting is: (Test System: AMES SALMONELLA TYPHIMURIUM, Strain/Indicator: TA100, Method: PREINCUBATION) “active; positive”; (Test System: CHINESE HAMSTER V-79, Strain/Indicator: V-79/OUABAIN, Metabolic Activation: HAMSTER, HEPATOCYTES, Method: CELL-MEDIATED) “active; positive”.

With `O=C(Cl)OCc1ccccc1`, the mutagenic call is, setting by setting: under setting [1], “inactive; negative”; (Test System: AMES SALMONELLA TYPHIMURIUM, Strain/Indicator: TA98, Metabolic Activation: RAT, LIVER, S-9, AROCLOR 1254, Method: STANDARD PLATE) “inactive; negative”; under setting [2], “inactive; negative”; (Test System: AMES SALMONELLA TYPHIMURIUM, Strain/Indicator: TA100, Metabolic Activation: RAT, LIVER, S-9, AROCLOR 1254, Method: STANDARD PLATE) “inactive; negative”; under setting [3], “inactive; negative”; (Test System: AMES SALMONELLA TYPHIMURIUM, Strain/Indicator: TA1535, Metabolic Activation: RAT, LIVER, S-9, AROCLOR 1254, Method: STANDARD PLATE) “inactive; negative”. The mutagenic call runs as follows: under setting [4], “inactive; negative”; (Test System: AMES SALMONELLA TYPHIMURIUM, Strain/Indicator: TA1537, Metabolic Activation: RAT, LIVER, S-9, AROCLOR 1254, Method: STANDARD PLATE) “inactive; negative”.

As for `CC(O)CN1CC(C)OC1=O` (stereo not given), the mutagenic call was “inactive; negative” (Test System: AMES SALMONELLA TYPHIMURIUM, Strain/Indicator: TA98, Metabolic Activation: HAMSTER, LIVER, S-9, AROCLOR 1254 (10%), Method: STANDARD PLATE); “inactive; negative” under setting [1]; “inactive; negative” (Test System: AMES SALMONELLA TYPHIMURIUM, Strain/Indicator: TA98, Metabolic Activation: RAT, LIVER, S-9, AROCLOR 1254 (10%), Method: STANDARD PLATE); “inactive; negative” (Test System: AMES SALMONELLA TYPHIMURIUM, Strain/Indicator: TA100, Metabolic Activation: HAMSTER, LIVER, S-9, AROCLOR 1254 (10%), Method: STANDARD PLATE); “inactive; negative” under setting [2]; “inactive; negative” (Test System: AMES SALMONELLA TYPHIMURIUM, Strain/Indicator: TA100, Metabolic Activation: RAT, LIVER, S-9, AROCLOR 1254 (10%), Method: STANDARD PLATE). Moreover, the mutagenic call runs as follows: (Test System: AMES SALMONELLA TYPHIMURIUM, Strain/Indicator: TA1535, Metabolic Activation: HAMSTER, LIVER, S-9, AROCLOR 1254 (10%), Method: STANDARD PLATE) “inactive; negative”; under setting [3], “inactive; negative”; (Test System: AMES SALMONELLA TYPHIMURIUM, Strain/Indicator: TA1535, Metabolic Activation: RAT, LIVER, S-9, AROCLOR 1254 (10%), Method: STANDARD PLATE) “inactive; negative”; (Test System: AMES SALMONELLA TYPHIMURIUM, Strain/Indicator: TA1537, Metabolic Activation: HAMSTER, LIVER, S-9, AROCLOR 1254 (10%), Method: STANDARD PLATE) “inactive; negative”; under setting [4], “inactive; negative”; (Test System: AMES SALMONELLA TYPHIMURIUM, Strain/Indicator: TA1537, Metabolic Activation: RAT, LIVER, S-9, AROCLOR 1254 (10%), Method: STANDARD PLATE) “inactive; negative”. Besides, the mutagenic call (Test System: AMES SALMONELLA TYPHIMURIUM, Strain/Indicator: TA1538, Metabolic Activation: HAMSTER, LIVER, S-9, AROCLOR 1254 (10%), Method: STANDARD PLATE) was “inactive; negative”; the mutagenic call (Test System: AMES SALMONELLA TYPHIMURIUM, Strain/Indicator: TA1538, Metabolic Activation: NONE, Method: STANDARD PLATE) was “inactive; negative”; the mutagenic call (Test System: AMES SALMONELLA TYPHIMURIUM, Strain/Indicator: TA1538, Metabolic Activation: RAT, LIVER, S-9, AROCLOR 1254 (10%), Method: STANDARD PLATE) is “inactive; negative”; the mutagenic call (Test System: MOUSE LYMPHOMA, Strain/Indicator: L5178Y (TK+/TK-), Metabolic Activation: NONE, Method: SUSPENSION/PLATE) is “active; positive. reevaluation of results: positive”; the mutagenic call (Test System: MOUSE LYMPHOMA, Strain/Indicator: L5178Y (TK+/TK-), Metabolic Activation: RAT, LIVER, S-9, AROCLOR 1254, Method: SUSPENSION/PLATE) is “active; positive. reevaluation of results: equivocal”.
